According to ChEMBL document CHEMBL3217730, “Determination of structural requirements of influenza neuraminidase type A inhibitors and binding interaction analysis with the active site of A/H1N1 by 3D-QSAR CoMFA and CoMSIA modeling” (Medchemcomm, 2011):

Target: Neuraminidase (Influenza A virus, UniProt B4URF0)
Experiment: Inhibition of Influenza virus neuraminidase A
Set-up: species or system unidentified influenza virus

Sequence of Neuraminidase (B4URF0 whole entry): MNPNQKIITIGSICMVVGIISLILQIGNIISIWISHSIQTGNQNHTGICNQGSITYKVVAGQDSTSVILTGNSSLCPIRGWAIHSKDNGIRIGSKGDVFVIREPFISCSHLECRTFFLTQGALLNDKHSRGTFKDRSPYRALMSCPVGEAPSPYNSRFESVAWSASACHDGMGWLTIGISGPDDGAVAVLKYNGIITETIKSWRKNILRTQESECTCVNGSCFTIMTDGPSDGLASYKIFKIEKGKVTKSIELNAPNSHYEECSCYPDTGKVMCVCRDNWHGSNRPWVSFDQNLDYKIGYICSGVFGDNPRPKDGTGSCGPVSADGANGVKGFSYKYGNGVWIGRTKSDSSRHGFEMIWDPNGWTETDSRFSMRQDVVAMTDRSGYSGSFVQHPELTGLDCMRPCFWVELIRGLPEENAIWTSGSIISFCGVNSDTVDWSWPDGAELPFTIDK

Structure (SMILES)	IC50 (read-out: IC50) [µM]	IC50 (read-out: pIC50 (converted)) [µM]	pIC50
CC[C@@H](C)O[C@@H]1C=C(C(=O)O)C[C@H](NC(=N)N)[C@H]1NC(C)=O	0.5	0.0005	
CC(=O)N[C@@H]1[C@@H](N)CC(C(=O)O)=C[C@H]1Oc1ccccc1	530	0.531	
CCC(C)O[C@@H]1C=C(C(=O)O)C[C@H](N)[C@H]1NC(C)=O (stereo partly drawn)	10		
CCO[C@@H]1C=C(C(=O)O)C[C@H](N)[C@H]1NC(C)=O	2000	2	
CCCCCCC[C@H](CC)O[C@@H]1C=C(C(=O)O)C[C@H](N)[C@H]1NC(C)=O	1	0.001	
CCCO[C@@H]1C=C(C(=O)O)C[C@H](N=C(N)N)[C@H]1NC(C)=O	2	0.002	
CCCCCCCCCCO[C@@H]1C=C(C(=O)O)C[C@H](N)[C@H]1NC(C)=O	600	0.601	
C=CC[C@H](CC)O[C@@H]1C=C(C(=O)O)C[C@H](N)[C@H]1NC(C)=O	1	0.001	
CO[C@@H]1C=C(C(=O)O)C[C@H](N)[C@H]1NC(C)=O	3700	3.71	
CC(=O)N[C@H]1[C@H](O)C=C(C(=O)O)C[C@@H]1N=C(N)N	100	0.1	
CC[C@@H](CCC1CCCCC1)O[C@@H]1C=C(C(=O)O)C[C@H](N)[C@H]1NC(C)=O	1	0.001	
CCC(CC)C(=O)N1C[C@@H](N)[C@@H](C(=O)O)C1	22		
CCN(CC)C(=O)N1C[C@@H](N)[C@@H](C(=O)O)C1	25		
CCCN(CCC)C(=O)N1C[C@@H](N)[C@@H](C(=O)O)C1	32		
CCN(C(=O)N1C[C@@H](N)[C@@H](C(=O)O)C1)C(C)C	1.6	1.06	
CC(C)N(C(=O)N1C[C@@H](N)[C@@H](C(=O)O)C1)C(C)C	4		
CC(C)N(CCO)C(=O)N1C[C@@H](N)[C@@H](C(=O)O)C1	21		
CC(C)N(CCCC(=O)O)C(=O)N1C[C@@H](N)[C@@H](C(=O)O)C1	19		
CC(C)N(CCN)C(=O)N1C[C@@H](N)[C@@H](C(=O)O)C1	46		
CCN(C(=O)N1C[C@H](C(=O)O)[C@H](NC(=N)N)C1)C(C)C	13		

Structure (SMILES)	IC50 (read-out: IC50) [µM]	IC50 (read-out: pIC50 (converted)) [µM]	pIC50
CCN(C(=O)N1C[C@H](N)[C@H](C(=O)O)[C@@H]1CNC(C)=O)C(C)C	7.5		
CCC(=O)NC[C@H]1[C@@H](C(=O)O)[C@@H](N)CN1C(=O)N(CC)C(C)C	16		
C=CC(=O)NC[C@H]1[C@@H](C(=O)O)[C@@H](N)CN1C(=O)N(CC)C(C)C	96		
CCN(C(=O)N1C[C@H](N)[C@H](C(=O)O)[C@@H]1CNC(=O)C(F)(F)F)C(C)C	0.28		
CCN(C(=O)N1C[C@H](N)[C@H](C(=O)O)[C@@H]1CNS(C)(=O)=O)C(C)C	130		
CCC(CC)NC(=O)[C@@H](NC(C)=O)[C@H]1CC(C(=O)O)C[C@@H]1NC(=N)N (stereo partly drawn)	0.06		
CCC(CC)NC(=O)[C@H](NC(C)=O)[C@H]1CC(C(=O)O)C[C@@H]1NC(=N)N (stereo partly drawn)	25		
CCN(CC)C(=O)[C@@H](NC(C)=O)[C@H]1CC(C(=O)O)C[C@@H]1NC(=N)N (stereo partly drawn)	0.07	0.00701	
CCCN(CCC)C(=O)[C@@H](NC(C)=O)[C@H]1CC(C(=O)O)C[C@@H]1NC(=N)N (stereo partly drawn)	0.043		
CC[C@H](C)O[C@@H]1C=C(C(=O)O)C[C@H](N)[C@H]1NC(C)=O	9	0.00902	
CC[C@H](C)O[C@@H]1C=C(C(=O)O)C[C@H](NC(=N)N)[C@H]1NC(C)=O	0.5	0.0005	
CC(=O)N[C@@H]1[C@@H](N)CC(C(=O)O)=C[C@H]1OC(C)C	0.001		
CC(=O)N[C@H]1[C@H](OC(C)C)C(C)=C(C(=O)O)C[C@@H]1N	2.3		
CC(=O)N[C@H]1[C@H](OC(C)C)C(F)=C(C(=O)O)C[C@@H]1N	0.003		
CC(=O)N[C@@H]1[C@@H](N)[C@H](C)C(C(=O)O)=C[C@H]1OC(C)C	1.5		
CCCC[C@@H](NC(C)=O)[C@@H]1CC(C(=O)O)C[C@@H]1NC(=N)N (stereo partly drawn)	0.013		
CCCC[C@@H](NC(C)=O)[C@@H]1CC(C(=O)O)C[C@H]1NC(=N)N (stereo partly drawn)	14.6		
CCCN(CCC)C(=O)[C@@H](NC(C)=O)[C@H]1C[C@](O)(C(=O)O)C[C@@H]1NC(=N)N	4.9		
CCCN(CCC)C(=O)[C@@H](NC(C)=O)[C@H]1C[C@@](O)(C(=O)O)C[C@@H]1NC(=N)N	2300		
CCCCCCCCCO[C@@H]1C=C(C(=O)O)C[C@H](N)[C@H]1NC(C)=O	210	0.21	

Structure (SMILES)	IC50 (read-out: IC50) [µM]	IC50 (read-out: pIC50 (converted)) [µM]	pIC50
CC[C@@H](CC1CCCCC1)O[C@@H]1C=C(C(=O)O)C[C@H](N)[C@H]1NC(C)=O	16	0.016	
CC(C)N(CCCCC(=O)O)C(=O)N1C[C@@H](N)[C@@H](C(=O)O)C1	1.3		
CC(C)N(CCc1ccccn1)C(=O)N1C[C@@H](N)[C@@H](C(=O)O)C1	1.3		
CC[C@@H](Cc1ccccc1)O[C@@H]1C=C(C(=O)O)C[C@H](N)[C@H]1NC(C)=O	620	0.621	
CC(C)N(CCCO)C(=O)N1C[C@@H](N)[C@@H](C(=O)O)C1			5.677
CC(C)N(CCCCCO)C(=O)N1C[C@@H](N)[C@@H](C(=O)O)C1	2		
CC(=O)N[C@@H]1[C@@H](N)CC(C(=O)O)=C[C@H]1OC1CCCCC1	60	0.0601	
CCCO[C@@H]1C=C(C(=O)O)C[C@H](N)[C@H]1NC(C)=O	180	0.18	
CC[C@H](CCc1ccccc1)O[C@@H]1C=C(C(=O)O)C[C@H](N)[C@H]1NC(C)=O	12	0.012	
CC(=O)N[C@@H]1[C@@H](N)CC(C(=O)O)=C[C@H]1OCC(C)C	200	0.2	
CCCCO[C@@H]1C=C(C(=O)O)C[C@H](N)[C@H]1NC(C)=O	300	0.301	
CC(=O)N[C@@H]1[C@@H](N)CC(C(=O)O)=C[C@H]1OCCCc1ccc(-c2ccccc2)cc1	90	0.0902	
CC(=O)N[C@H]1[C@H](O)C=C(C(=O)O)C[C@@H]1N	6300		
CC[C@@H](CCc1ccccc1)O[C@@H]1C=C(C(=O)O)C[C@H](N)[C@H]1NC(C)=O	0.3	0.000301	
CCCCCCCCO[C@@H]1C=C(C(=O)O)C[C@H](N)[C@H]1NC(C)=O	180	0.18	
CCCCO[C@@H]1C=C(C(=O)O)C[C@H](N=C(N)N)[C@H]1NC(C)=O	3	0.00301	
CCCCCCCO[C@@H]1C=C(C(=O)O)C[C@H](N)[C@H]1NC(C)=O	270	0.27	
CCCCCCO[C@@H]1C=C(C(=O)O)C[C@H](N)[C@H]1NC(C)=O	150	0.15	
CCCCCO[C@@H]1C=C(C(=O)O)C[C@H](N)[C@H]1NC(C)=O	200	0.2	
